Source: the NIST ThermoML archive (doi:10.1016/j.jct.2015.07.006)
Where “and” joins values, the source holds several entries; their conditions need not be identical. Identical values can stand only once.

Assay: mn = molality of the nth substance listed, in mol/kg
Conditions: 298.15 K, 100 kPa, Liquid, Vibrating tube method

[O]=[Tc](=[O])(=[O])[OH] [pertechnetic acid] + O
Conditions	mass density
m1 = 0.000983	996.83 kg/m3
m1 = 0.00102	996.91 kg/m3
m1 = 0.00113	996.91 kg/m3 and 996.92 kg/m3
m1 = 0.00124	996.91 kg/m3
m1 = 0.00159	996.95 kg/m3
m1 = 0.1	1008.7 kg/m3
m1 = 0.103	1008.77 kg/m3
m1 = 0.114	1009.95 kg/m3
m1 = 0.115	1010.3 kg/m3
m1 = 0.127	1011.76 kg/m3
m1 = 0.163	1016.23 kg/m3
m1 = 0.888	1097.53 kg/m3
m1 = 0.98	1107.47 kg/m3
m1 = 1.007	1117.47 kg/m3
m1 = 1.096	1127.7 kg/m3
m1 = 1.182	1137.34 kg/m3
m1 = 1.265	1146.5 kg/m3
m1 = 1.347	1155.88 kg/m3
m1 = 1.398	1164.11 kg/m3
m1 = 1.535	1178.55 kg/m3
m1 = 1.696	1195.28 kg/m3
m1 = 2.034	1225.06 kg/m3
m1 = 2.106	1235.3 kg/m3
m1 = 2.211	1243.09 kg/m3
m1 = 2.45	1263.95 kg/m3
m1 = 2.555	1272.74 kg/m3
m1 = 2.667	1283.23 kg/m3
m1 = 2.783	1293.03 kg/m3
m1 = 2.908	1303.34 kg/m3
m1 = 3.042	1314.68 kg/m3
m1 = 3.33	1335.81 kg/m3
m1 = 3.49	1348.06 kg/m3
m1 = 3.693	1374.94 kg/m3
m1 = 3.884	1389.83 kg/m3
m1 = 4.038	1399.11 kg/m3
m1 = 4.46	1434.87 kg/m3
m1 = 4.661	1446.75 kg/m3
m1 = 4.851	1460.83 kg/m3
m1 = 5.049	1475.34 kg/m3
m1 = 5.257	1490.81 kg/m3
m1 = 5.485	1507.23 kg/m3
m1 = 5.722	1523.34 kg/m3
m1 = 6.254	1556.61 kg/m3
m1 = 6.537	1574.08 kg/m3
m1 = 6.849	1593.38 kg/m3
m1 = 7.187	1612.75 kg/m3
m1 = 7.54	1634.13 kg/m3
m1 = 7.918	1657.06 kg/m3
m1 = 8.323	1679.31 kg/m3
